Results reported in patent publication US20240270762A1, “PENICILLIN-BINDING PROTEIN INHIBITORS” (priority 2021, published 2024).
≈ marks a conversion by molar mass, not a printed value.

How the values were obtained:
[1] = target: T1, PBP3 from Pseudomonas aeruginosa (PAO1) (Pseudomonas aeruginosa, UniProt G3XD46); assay: Bocillin-FL fluorescence polarization competition binding, P. aeruginosa PBP3; conditions: Binding affinity to P. aeruginosa PBP3; fluorescence polarization competition binding assay using Bocillin-FL; read-out: P. aeruginosa PBP3 Potency
T1 construct: made in house
T1 sequence (G3XD46 whole entry): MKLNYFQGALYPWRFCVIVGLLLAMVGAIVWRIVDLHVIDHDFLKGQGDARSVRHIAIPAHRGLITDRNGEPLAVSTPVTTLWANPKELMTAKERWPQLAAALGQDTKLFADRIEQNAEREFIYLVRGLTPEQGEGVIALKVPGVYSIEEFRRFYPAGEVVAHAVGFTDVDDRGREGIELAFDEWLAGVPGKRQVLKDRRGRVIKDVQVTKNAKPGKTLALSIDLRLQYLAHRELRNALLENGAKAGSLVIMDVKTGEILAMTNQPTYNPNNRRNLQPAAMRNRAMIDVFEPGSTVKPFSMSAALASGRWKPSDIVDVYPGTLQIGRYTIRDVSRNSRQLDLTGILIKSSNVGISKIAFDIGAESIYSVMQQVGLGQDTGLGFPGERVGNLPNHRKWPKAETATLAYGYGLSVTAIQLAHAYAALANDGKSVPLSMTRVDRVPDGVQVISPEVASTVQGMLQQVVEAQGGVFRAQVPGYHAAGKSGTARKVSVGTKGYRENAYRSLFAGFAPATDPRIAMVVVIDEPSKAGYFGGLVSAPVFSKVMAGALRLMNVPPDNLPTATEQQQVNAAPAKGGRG
Outline: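 Purified PBP was preincubated with inhibitor (E. coli PBP3 1.5 μM, 30 min; P. aeruginosa PBP3 0.75 μM, A. baumannii PBP3 0.2 μM and PBP1a 1 μM, 15 min), then Bocillin-FL (0.1 μM; 0.05 μM for PBP1a) added and FP read up to 60 min. EC50 = 50% loss of bound probe.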

A. baumannii ATCC 17978 = assay: microbe, parasite or virus in culture; format: cell-based; conditions: Acinetobacter baumannii, ATCC17978, read-out: MIC, A. baumannii ATCC 17978
A. baumannii ATCC 19606 = assay: microbe, parasite or virus in culture; format: cell-based; conditions: Acinetobacter baumannii, ATCC19606, read-out: MIC, A. baumannii ATCC 19606
P. aeruginosa ATCC 35151 = assay: microbe, parasite or virus in culture; format: cell-based; conditions: Pseudomonas aeruginosa, ATCC35151, read-out: Minimum inhibitory concentration, P. aeruginosa ATCC 35151
P. aeruginosa CDC-0095 = assay: microbe, parasite or virus in culture; format: cell-based; conditions: Pseudomonas aeruginosa, CDC0095, read-out: Minimum inhibitory concentration, P. aeruginosa CDC-0095
A. baumannii 1258916 = assay: microbe, parasite or virus in culture; format: cell-based, Acinetobacter baumannii; conditions: Acinetobacter baumannii, 1258916, read-out: MIC, A. baumannii 1258916
A. baumannii CDC-0033 = assay: microbe, parasite or virus in culture; format: cell-based; conditions: Acinetobacter baumannii, CDC0033, read-out: MIC, A. baumannii CDC-0033
A. baumannii CDC-0036 = assay: microbe, parasite or virus in culture; format: cell-based; conditions: Acinetobacter baumannii, CDC0036, read-out: MIC, A. baumannii CDC-0036
A. baumannii CDC-0083 = assay: microbe, parasite or virus in culture; format: cell-based; conditions: Acinetobacter baumannii, CDC0083, read-out: MIC, A. baumannii CDC-0083
P. aeruginosa CDC-0110 = assay: microbe, parasite or virus in culture; format: cell-based; conditions: Pseudomonas aeruginosa, CDC0110, read-out: Minimum inhibitory concentration, P. aeruginosa CDC-0110
[2] = system: N. gonorrhoeae ATCC 49226; assay: Liquid broth MIC in Fastidious broth; conditions: Neisseria gonorrhoeae, ATCC49226, read-out: Minimum Inhibitory Concentration, ATCC 49226
N. gonorrhoeae MS11 = assay: Liquid broth MIC in Fastidious broth; conditions: Neisseria gonorrhoeae, MS11, read-out: Minimum Inhibitory Concentration, MS11
N. gonorrhoeae WHO M = assay: Liquid broth MIC in Fastidious broth; conditions: Neisseria gonorrhoeae, read-out: Minimum Inhibitory Concentration, WHO M
Description: Liquid broth-based assays were used for antibacterial testing of PBP inhibitors in Neisseria gonorrhoeae. Briefly, cryo-preserved bacterial cultures of clinical strains were streaked for isolation on Chocolate Agar (72 g/L (2×) GC Agar Base (BD #228950) and 2% (2×) Hemoglobin was autoclaved at 121° C. for 20 minutes to sterilize. Once cooled to ˜50° C. the 2×GC Agar Base and 2× Hemoglobin solutions are combined and 1% IsoVitaleX Enrichment (BD #211876) was added to the solution). Strains were incubated at 36° C. and 5% CO2 to allow growth of colonies, 24 hours before inoculum preparation. 2-fold serial dilutions of test compounds were conducted in a 96 well plate with a final volume of 75 μL per well at 2-fold the final desired concentration in Fastidious broth (Remel #R07664). For preparation of assay inoculum, a direct suspension was prepared by aseptically swabbing 10-15 colonies from agar plates into culture tubes containing 2 mL of fresh sterile saline. After the dilution plates were set up, direct suspensions were then diluted in a cuvette containing sterile saline and the optical density was measured at 600 nm. Inocula were diluted such that 75 μL of this culture in Fastidious broth results in a starting bacterial concentration of 5×10^5 CFU/mL when added to the dilution plates. The plates were incubated for ˜24 hours at 36° C. and 5% CO2.

N. gonorrhoeae WHO X = assay: Liquid broth MIC in Fastidious broth; conditions: Neisseria gonorrhoeae, read-out: Minimum Inhibitory Concentration, WHO X
N. gonorrhoeae CDC-0197 = assay: Liquid broth MIC in Fastidious broth; conditions: Neisseria gonorrhoeae, CDC0197, read-out: Minimum Inhibitory Concentration, CDC-0197

Compound	IC50 [1]	MIC (A. baumannii ATCC 17978)	MIC (A. baumannii ATCC 19606)	MIC (P. aeruginosa ATCC 35151)	MIC (P. aeruginosa CDC-0095)	MIC (A. baumannii 1258916)	MIC (A. baumannii CDC-0033)	MIC (A. baumannii CDC-0036)	MIC (A. baumannii CDC-0083)	MIC (P. aeruginosa CDC-0110)	MIC [2]	MIC (N. gonorrhoeae MS11)	MIC (N. gonorrhoeae WHO M)	MIC (N. gonorrhoeae WHO X)	MIC (N. gonorrhoeae CDC-0197)
O=C(NCCCN1CCN(C(=O)N[C@@H](C(=O)N[C@H]2Cc3ccc(F)c(C(=O)O)c3OB2O)c2cc(F)c(O)c(O)c2Cl)C1=O)c1cccc(O)c1 [Example 255, (R)-3-((R)-2-(2-chloro-5-fluoro-3,4-dihydroxyphenyl)-2-(3-(3-(3-hydroxybenzamido)propyl)-2-oxoimidazolidine-1-carboxamido)acetamido)-7-fluoro-2-hydroxy-3,4-dihydro-2H-benzo[e][1,2]oxaborinine-8-carboxylic acid]	< 10 µM	< 1 µg/mL	< 1 µg/mL	< 1 µg/mL	2 to 4 µg/mL (≈ 2.73 to 5.47 µM)	< 1 µg/mL	2 to 4 µg/mL (≈ 2.73 to 5.47 µM)	< 1 µg/mL	< 1 µg/mL	< 1 µg/mL	16 to 32 µg/mL (≈ 21.9 to 43.7 µM)	16 to 32 µg/mL (≈ 21.9 to 43.7 µM)	4 to 8 µg/mL (≈ 5.47 to 10.9 µM)	> 64 µg/mL	16 to 32 µg/mL (≈ 21.9 to 43.7 µM)
O=C(NCCCN1CCN(C(=O)NC(C(=O)N[C@H]2Cc3ccc(F)c(C(=O)O)c3OB2O)c2cc(F)c(O)c(O)c2Cl)C1=O)c1ccncc1 (stereo partly drawn) [Example 256, (3R)-3-(2-(2-chloro-5-fluoro-3,4-dihydroxyphenyl)-2-(3-(3-(isonicotinamido)propyl)-2-oxoimidazolidine-1-carboxamido)acetamido)-7-fluoro-2-hydroxy-3,4-dihydro-2H-benzo[e][1,2]oxaborinine-8-carboxylic acid]	< 10 µM	< 1 µg/mL	< 1 µg/mL	< 1 µg/mL	2 to 4 µg/mL (≈ 2.79 to 5.58 µM)	< 1 µg/mL	2 to 4 µg/mL (≈ 2.79 to 5.58 µM)	2 to 4 µg/mL (≈ 2.79 to 5.58 µM)	< 1 µg/mL	2 to 4 µg/mL (≈ 2.79 to 5.58 µM)	16 to 32 µg/mL (≈ 22.3 to 44.6 µM)	> 64 µg/mL	16 to 32 µg/mL (≈ 22.3 to 44.6 µM)	> 64 µg/mL	> 64 µg/mL
O=C(NCCCN1CCN(C(=O)NC(C(=O)N[C@H]2Cc3ccc(F)c(C(=O)O)c3OB2O)c2cc(F)c(O)c(O)c2Cl)C1=O)c1nccs1 (stereo partly drawn) [Example 257, (3R)-3-(2-(2-chloro-5-fluoro-3,4-dihydroxyphenyl)-2-(2-oxo-3-(3-(thiazole-2-carboxamido)propyl)imidazolidine-1-carboxamido)acetamido)-7-fluoro-2-hydroxy-3,4-dihydro-2H-benzo[e][1,2]oxaborinine-8-carboxylic acid]	< 10 µM	< 1 µg/mL	< 1 µg/mL	< 1 µg/mL	2 to 4 µg/mL (≈ 2.77 to 5.53 µM)	< 1 µg/mL	2 to 4 µg/mL (≈ 2.77 to 5.53 µM)	2 to 4 µg/mL (≈ 2.77 to 5.53 µM)	< 1 µg/mL	2 to 4 µg/mL (≈ 2.77 to 5.53 µM)	> 64 µg/mL	16 to 32 µg/mL (≈ 22.1 to 44.3 µM)	16 to 32 µg/mL (≈ 22.1 to 44.3 µM)	> 64 µg/mL	> 64 µg/mL
O=C(NCCCN1CCN(C(=O)N[C@@H](C(=O)N[C@H]2Cc3ccc(F)c(C(=O)O)c3OB2O)c2cc(F)c(O)c(O)c2Cl)C1=O)Nc1cccc(O)c1 [Example 258, (R)-3-((R)-2-(2-chloro-5-fluoro-3,4-dihydroxyphenyl)-2-(3-(3-(3-(3-hydroxyphenyl)ureido)propyl)-2-oxoimidazolidine-1-carboxamido)acetamido)-7-fluoro-2-hydroxy-3,4-dihydro-2H-benzo[e][1,2]oxaborinine-8-carboxylic acid]	< 10 µM	< 1 µg/mL	< 1 µg/mL	< 1 µg/mL	< 1 µg/mL	< 1 µg/mL	< 1 µg/mL	< 1 µg/mL	< 1 µg/mL	< 1 µg/mL	4 to 8 µg/mL (≈ 5.36 to 10.7 µM)	16 to 32 µg/mL (≈ 21.4 to 42.8 µM)	4 to 8 µg/mL (≈ 5.36 to 10.7 µM)	> 64 µg/mL	16 to 32 µg/mL (≈ 21.4 to 42.8 µM)
